Laboratory results: US9458113B2 (Boehringer Ingelheim International GmbH, priority 2014, dated 2016)

Target: Human neutrophil elastase (Homo sapiens (Human), UniProt P08246)
Experiment: Human Neutrophil Elastase Assay
Assay type: biochemical
Conditions: substrate MeOSuc-Ala-Ala-Pro-Val-AMC 250 μM, pH 7.5

Human neutrophil elastase, sequence (P08246 30-247): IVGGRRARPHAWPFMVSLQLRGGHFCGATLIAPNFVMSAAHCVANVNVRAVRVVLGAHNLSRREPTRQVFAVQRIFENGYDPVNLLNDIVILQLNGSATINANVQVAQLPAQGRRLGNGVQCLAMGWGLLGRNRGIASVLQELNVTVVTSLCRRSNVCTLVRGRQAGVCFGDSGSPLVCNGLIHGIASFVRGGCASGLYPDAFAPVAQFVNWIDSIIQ

| SMILES | IC50 [nM] |
| --- | --- |
| CN1C(=O)N(c2cccc(C(F)(F)F)c2)C2=C(C(=O)CC2)C1c1ccc(C#N)cc1-c1ccoc1 (stereo not shown) [Example 11, 3-Furan-3-yl-4-[3-methyl-2,5-dioxo-1-(3-trifluoromethyl-phenyl)-2,3,4,5,6,7-hexahydro-1H-cyclopentapyrimidin-4-yl]-benzonitrile] | 3.3 |
| CC(=O)N1CCN(C(=O)c2cc(C#N)ccc2C2C3=C(CCC3=O)N(c3cccc(C(F)(F)F)c3)C(=O)N2C)CC1 (stereo not shown) [Example 1.85] | 4.6 |
| CN1C(=O)N(c2cccc(C(F)(F)F)c2)C2=C(C(=O)CC2)C1c1ccc(C#N)cc1C(=O)N1CCC(N2CCOCC2)C1 (stereo not shown) [Example 1.79] | 3 |
| CN1C(=O)N(c2cccc(C(F)(F)F)c2)C2=C(C(=O)CC2)C1c1ccc(C#N)cc1C(=O)NCCCO (stereo not shown) [Example 1.15] | 5 |
| CN1C(=O)N(c2cccc(C(F)(F)F)c2)C2=C(C(=O)CC2)C1c1ccc(C#N)cc1C(N)=O (stereo not shown) [Example 1, 5-Cyano-2-[3-methyl-2,5-dioxo-1-(3-trifluoromethyl-phenyl)-2,3,4,5,6,7-hexahydro-1H-cyclopentapyrimidin-4-yl]-benzamide] | 5.3 |
| CC(=O)N(C)[C@H]1CCN(C(=O)c2cc(C#N)ccc2C2C3=C(CCC3=O)N(c3cccc(C(F)(F)F)c3)C(=O)N2C)C1 (stereo partly shown) [Example 1.77] | 2.3 |
| CN1C(=O)N(c2cccc(C(F)(F)F)c2)C2=C(C(=O)CC2)C1c1ccc(C#N)cc1C(=O)N1CCC1 (stereo not shown) [Example 1.7] | 2.2 |
| C#CCNC(=O)c1cc(C#N)ccc1C1C2=C(CCC2=O)N(c2cccc(C(F)(F)F)c2)C(=O)N1C (stereo not shown) [Example 1.4] | 3.7 |
| CN1C(=O)N(c2cccc(C(F)(F)F)c2)C2=C(C(=O)CC2)C1c1ccc(C#N)cc1C(=O)NC(C)(C)C#N (stereo not shown) [Example 5, 5-Cyano-N-(cyano-dimethyl-methyl)-2-[3-methyl-2,5-dioxo-1-(3-trifluoromethyl-phenyl)-2,3,4,5,6,7-hexahydro-1H-cyclopentapyrimidin-4-yl]-benzamide] | 3.4 |
| CN1C(=O)N(c2cccc(C(F)(F)F)c2)C2=C(C(=O)CC2)C1c1ccc(C#N)cc1C(=O)NCc1nnnn1C (stereo not shown) [Example 1.62] | 2.5 |
| CN(C)C(=O)c1cc(C#N)ccc1[C@@H]1C2=C(CCC2=O)N(c2cccc(C(F)(F)F)c2)C(=O)N1C [Example 2.2] | 1.1 |
| CN1C(=O)N(c2cccc(C(F)(F)F)c2)C2=C(C(=O)CC2)C1c1ccc(C#N)cc1C(=O)NCc1ccn(C)n1 (stereo not shown) [Example 1.53] | 2.2 |
| CN1C(=O)N(c2cccc(C(F)(F)F)c2)C2=C(C(=O)CC2)C1c1ccc(C#N)cc1C(=O)NCC(F)F (stereo not shown) [Example 1.16] | 6 |
| COCCCN(C)C(=O)c1cc(C#N)ccc1C1C2=C(CCC2=O)N(c2cccc(C(F)(F)F)c2)C(=O)N1C (stereo not shown) [Example 1.24] | 3.3 |
| CN1C(=O)N(c2cccc(C(F)(F)F)c2)C2=C(C(=O)CC2)C1c1ccc(C#N)cc1C(=O)NCc1cn(C)cn1 (stereo not shown) [Example 1.54] | 6.9 |
| CN1C(=O)N(c2cccc(C(F)(F)F)c2)C2=C(C(=O)CC2)C1c1ccc(C#N)cc1C(=O)NCc1cnco1 (stereo not shown) [Example 1.40] | 1 |
| CN1C(=O)N(c2cccc(C(F)(F)F)c2)C2=C(C(=O)CC2)C1c1ccc(C#N)cc1C(=O)NCc1cnn(C)c1 (stereo not shown) [Example 1.55] | 4.8 |
| CN(Cc1ccno1)C(=O)c1cc(C#N)ccc1C1C2=C(CCC2=O)N(c2cccc(C(F)(F)F)c2)C(=O)N1C (stereo not shown) [Example 1.60] | < 1 |
| CN1C(=O)N(c2cccc(C(F)(F)F)c2)C2=C(C(=O)CC2)C1c1ccc(C#N)cc1C(=O)NCCN1CCOCC1 (stereo not shown) [Example 1.76] | 4.5 |
| CN1C(=O)N(c2cccc(C(F)(F)F)c2)C2=C(C(=O)CC2)C1c1ccc(C#N)cc1C(=O)NCC(C)(C)O (stereo not shown) [Example 1.19] | 9.5 |

| SMILES | IC50 [nM] |
| --- | --- |
| CN1C(=O)N(c2cccc(C(F)(F)F)c2)C2=C(C(=O)CC2)C1c1ccc(C#N)cc1C(=O)NC1CCOCC1 (stereo not shown) [Example 1.23] | 8.4 |
| CN(Cc1ccon1)C(=O)c1cc(C#N)ccc1C1C2=C(CCC2=O)N(c2cccc(C(F)(F)F)c2)C(=O)N1C (stereo not shown) [Example 1.59] | 1.1 |
| CN1C(=O)N(c2cccc(C(F)(F)F)c2)C2=C(C(=O)CC2)C1c1ccc(C#N)cc1-c1nnco1 (stereo not shown) [Example 13, 4-[3-Methyl-2,5-dioxo-1-(3-trifluoromethyl-phenyl)-2,3,4,5,6,7-hexahydro-1H-cyclopentapyrimidin-4-yl]-3-[1,3,4]oxadiazol-2-yl-benzonitrile] | 2.1 |
| CN(Cc1cn[nH]c1)C(=O)c1cc(C#N)ccc1C1C2=C(CCC2=O)N(c2cccc(C(F)(F)F)c2)C(=O)N1C (stereo not shown) [Example 1.57] | < 1 |
| CN1C(=O)N(c2cccc(C(F)(F)F)c2)C2=C(C(=O)CC2)C1c1ccc(C#N)cc1C(=O)NCc1ccno1 (stereo not shown) [Example 1.39] | 1.9 |
| CN1C(=O)N(c2cccc(C(F)(F)F)c2)C2=C(C(=O)CC2)C1c1ccc(C#N)cc1C(=O)N1C[C@H]2C[C@@H]1C[N+]2(C)C (stereo partly shown) [Example 3.5] | 7 |
| CN1C(=O)N(c2ccnc(C(F)(F)F)c2)C2=C(C(=O)CC2)C1c1ccc(C#N)cc1-c1ccoc1 (stereo not shown) [Example 17, 3-Furan-3-yl-4-[3-methyl-2,5-dioxo-1-(2-trifluoromethyl-pyridin-4-yl)-2,3,4,5,6,7-hexahydro-1H-cyclopentapyrimidin-4-yl]-benzonitrile] | 11.2 |
| CN1C(=O)N(c2cccc(C(F)(F)F)c2)C2=C(C(=O)CC2)C1c1ccc(C#N)cc1C(=O)N1CCn2ccnc2C1 (stereo not shown) [Example 1.68] | < 1 |
| CN1C(=O)N(c2cccc(C(F)(F)F)c2)C2=C(C(=O)CC2)C1c1ccc(C#N)cc1C(=O)NCc1cccnc1 (stereo not shown) [Example 1.46] | 3.9 |
| CN1C(=O)N(c2cccc(C(F)(F)F)c2)C2=C(C(=O)CC2)C1c1ccc(C#N)cc1C(=O)NCc1ccco1 (stereo not shown) [Example 1.36] | 2.2 |
| CN1C(=O)N(c2cccc(C(F)(F)F)c2)C2=C(C(=O)CC2)C1c1ccc(C#N)cc1C(=O)NCc1ccon1 (stereo not shown) [Example 1.43] | 2 |
| CN1C(=O)N(c2cccc(C(F)(F)F)c2)C2=C(C(=O)CC2)C1c1ccc(C#N)cc1C(=O)N1CCN2CCOCC2C1 (stereo not shown) [Example 1.35] | 16.2 |
| CN1C(=O)N(c2cccc(C(F)(F)F)c2)C2=C(C(=O)CCC2)C1c1ccc(C#N)cc1C(=O)N1CCOCC1 (stereo not shown) [Example 6.1] | 2.9 |
| CCN1CCN(C(=O)c2cc(C#N)ccc2C2C3=C(CCC3=O)N(c3cccc(C(F)(F)F)c3)C(=O)N2C)CC1 (stereo not shown) [Example 3.2] | 8.1 |
| CN(C)CCN(C)C(=O)c1cc(C#N)ccc1C1C2=C(CCC2=O)N(c2cccc(C(F)(F)F)c2)C(=O)N1C (stereo not shown) [Example 3.1] | 1.3 |
| CN(CCN)C(=O)c1cc(C#N)ccc1C1C2=C(CCC2=O)N(c2cccc(C(F)(F)F)c2)C(=O)N1C (stereo not shown) [Example 4.5] | 2 |
| CN1C(=O)N(c2cccc(C(F)(F)F)c2)C2=C(C(=O)CC2)C1c1ccc(C#N)cc1C(=O)NCc1nccn1C (stereo not shown) [Example 1.58] | 2.4 |
| CN1C(=O)N(c2ccnc(C(F)(F)F)c2)C2=C(C(=O)CC2)C1c1ccc(C#N)cc1C1=CCNCC1 (stereo not shown) [Example 18, 4-[3-Methyl-2,5-dioxo-1-(2-trifluoromethyl-pyridin-4-yl)-2,3,4,5,6,7-hexahydro-1H-cyclopentapyrimidin-4-yl]-3-(1,2,3,6-tetrahydro-pyridin-4-yl)-benzonitrile] | 1.7 |
| CN1C(=O)N(c2cccc(C(F)(F)F)c2)C2=C(C(=O)CC2)C1c1ccc(C#N)cc1C(=O)NCc1ccnn1C (stereo not shown) [Example 1.56] | 5.4 |
| CN1C(=O)N(c2cccc(C(F)(F)F)c2)C2=C(C(=O)CC2)C1c1ccc(C#N)cc1C(=O)N1CCNCC1 (stereo not shown) [Example 4] | 7.5 |

The next lines start with the values.

| IC50 [nM] | SMILES |
| --- | --- |
| 1.3 | CN1C(=O)N(c2cccc(C(F)(F)F)c2)C2=C(C(=O)CCC2)C1c1ccc(C#N)cc1C1=CCOCC1 (stereo not shown) [Example 15.9] |
| 1 | CN1C(=O)N(c2cccc(C(F)(F)F)c2)C2=C(C(=O)CC2)C1c1ccc(C#N)cc1-c1ccncc1 (stereo not shown) [Example 11.9] |
| 71.6 | CN1C(=O)N(c2ccnc(C(F)(F)F)c2)C2=C(C(=O)CC2)C1c1ccc(C#N)cc1C(=O)N1CCOCC1 (stereo not shown) [Example 8.5] |
| 2.8 | Cc1noc(-c2cc(C#N)ccc2C2C3=C(CCC3=O)N(c3cccc(C(F)(F)F)c3)C(=O)N2C)n1 (stereo not shown) [Example 13.2, 4-[3-Methyl-2,5-dioxo-1-(3-trifluoromethyl-phenyl)-2,3,4,5,6,7-hexahydro-1H-cyclopentapyrimidin-4-yl]-3-(3-methyl-[1,2,4]oxadiazol-5-yl)-benzonitrile] |
| 1.6 | CN1C(=O)N(c2cccc(C(F)(F)F)c2)C2=C(C(=O)CCC2)C1c1ccc(C#N)cc1-c1cn[nH]c1 (stereo not shown) [Example 15.4] |
| 1.2 | CN1C(=O)N(c2cccc(C(F)(F)F)c2)C2=C(C(=O)CC2)C1c1ccc(C#N)cc1-c1ccn(C)c(=O)c1 (stereo not shown) [Example 11.7] |
| 181 | CN1C(=O)N(c2ccnc(C(F)(F)F)c2)C2=C(C(=O)CC2)C1c1ccc(C#N)cc1C(=O)N1CCCCC1 (stereo not shown) [Example 8.4] |
| 10.6 | CN1C(=O)N(c2ccnc(C(F)(F)F)c2)C2=C(C(=O)CC2)C1c1ccc(C#N)cc1-c1ccn(C)c(=O)c1 (stereo not shown) [Example 17.3] |
| 25 | CNC(=O)c1cc(C#N)ccc1C1C2=C(CCC2=O)N(c2ccnc(C(F)(F)F)c2)C(=O)N1C (stereo not shown) [Example 8.1] |
| 16.8 | CN(C)C(=O)c1cc(C#N)ccc1C1C2=C(CCC2=O)N(c2ccnc(C(F)(F)F)c2)C(=O)N1C (stereo not shown) [Example 8.2] |
| 1.7 | CN1C(=O)N(c2cccc(C(F)(F)F)c2)C2=C(C(=O)CC2)C1c1ccc(C#N)cc1C1=CCN(C(=O)OC(C)(C)C)CC1 (stereo not shown) [Example 11.6, 4-{5-Cyano-2-[3-methyl-2,5-dioxo-1-(3-trifluoromethyl-phenyl)-2,3,4,5,6,7-hexahydro-1H-cyclopentapyrimidin-4-yl]-phenyl}-3,6-dihydro-2H-pyridine-1-carboxylic acid tert-butyl ester] |
| 7.9 | CN1C(=O)N(c2cccc(C(F)(F)F)c2)C2=C(C(=O)CC2)C1c1ccc(C#N)cc1-c1ccc2c(cnn2C)c1 (stereo not shown) [Example 11.12] |
| < 1 | CN1C(=O)N(c2cccc(C(F)(F)F)c2)C2=C(C(=O)CC2)C1c1ccc(C#N)cc1-c1ccc(=O)n(C)c1 (stereo not shown) [Example 11.16] |
| < 1 | CN1C(=O)N(c2cccc(C(F)(F)F)c2)C2=C(C(=O)CC2)C1c1ccc(C#N)cc1C1=CCCO1 (stereo not shown) [Example 11.5] |
| 2.2 | CNCc1cc(C#N)ccc1C1C2=C(CCC2=O)N(c2cccc(C(F)(F)F)c2)C(=O)N1C (stereo not shown) [Example 9.4] |
